Activity calls are given as the source filed them. The calls are words filed in the database; no cut-off is given here.
How the values were obtained:
[1] = Induction of apoptosis in […] cells assessed as early apoptosis by annexinV/propidium iodide staining based by flow cytometry (reference value: 0.02+/- 0.01%); type: functional, Mus musculus
[2] = tested on: MCF7; assay: Induction of cell morphological changes in human MCF7 cells assessed as loss in cell shape by microscopic analysis; type: functional, cell-based
[3] = tested on: NFS-60; assay: Induction of cell morphological changes in […] cells assessed as loss in cell shape by microscopic analysis; type: functional, cell-based; conditions: Mus musculus
[4] = Anticancer activity against […] cells assessed as reduction in cell viability by MTT assay; type: functional, cell-based; conditions: Mus musculus
[5] = Induction of apoptosis in […] cells assessed as late apoptosis by annexinV/propidium iodide staining based by flow cytometry (reference value: 0.015+/- 0.01%); type: functional, Mus musculus
[6] = tested on: HepG2; assay: Induction of apoptosis in human HepG2 cells assessed as late apoptosis by annexinV/propidium iodide staining based by flow cytometry (reference value: 0.1+/- 0.001%); type: functional
[7] = biological target: Matrix metalloproteinase-9 (Homo sapiens, UniProt P14780); assay: Inhibition of MMP-9 (unknown origin) by colorimetric assay
Matrix metalloproteinase-9, sequence (P14780 whole entry): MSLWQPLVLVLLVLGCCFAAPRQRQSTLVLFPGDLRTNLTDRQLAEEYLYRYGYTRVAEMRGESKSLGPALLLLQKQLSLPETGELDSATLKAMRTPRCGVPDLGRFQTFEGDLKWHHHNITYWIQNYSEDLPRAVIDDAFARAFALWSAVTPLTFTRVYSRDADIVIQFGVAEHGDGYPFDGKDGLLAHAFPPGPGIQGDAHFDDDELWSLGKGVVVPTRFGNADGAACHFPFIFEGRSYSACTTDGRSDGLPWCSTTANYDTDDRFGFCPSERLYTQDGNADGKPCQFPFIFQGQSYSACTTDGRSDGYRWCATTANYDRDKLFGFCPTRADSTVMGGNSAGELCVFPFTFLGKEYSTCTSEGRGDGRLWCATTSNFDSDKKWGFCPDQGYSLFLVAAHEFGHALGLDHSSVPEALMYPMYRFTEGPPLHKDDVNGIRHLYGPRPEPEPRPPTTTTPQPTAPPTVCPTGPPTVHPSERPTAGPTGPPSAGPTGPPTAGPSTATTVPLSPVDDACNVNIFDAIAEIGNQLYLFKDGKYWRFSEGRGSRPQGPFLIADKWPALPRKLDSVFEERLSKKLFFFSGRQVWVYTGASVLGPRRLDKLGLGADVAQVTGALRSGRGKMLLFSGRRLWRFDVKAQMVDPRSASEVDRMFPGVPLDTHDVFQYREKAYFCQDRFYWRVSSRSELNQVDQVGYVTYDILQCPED

[8] = tested on: MCF7; assay: Induction of apoptosis in human MCF-7 cells assessed as early apoptosis by annexinV/propidium iodide staining based by flow cytometry (reference value: 0.47+/- 0.01%); type: functional
[9] = biological target: Collagenase 3 (Homo sapiens, UniProt P45452); assay: Inhibition of MMP-13 (unknown origin) by colorimetric assay
[10] = tested on: HepG2; assay: Induction of apoptosis in human HepG2 cells assessed as early apoptosis by annexinV/propidium iodide staining based by flow cytometry (reference value: 0.78+/- 0.09%); type: functional
[11] = tested on: HepG2; assay: Induction of cell morphological changes in human HepG2 cells assessed as loss in cell shape by microscopic analysis; type: functional, cell-based
[12] = tested on: MCF7; assay: Induction of apoptosis in human MCF7 cells assessed as cell shrinkage by microscopic analysis; type: functional, cell-based
[13] = tested on: HepG2; assay: Anticancer activity against human HepG2 cells assessed as reduction in cell viability by MTT assay; type: functional, cell-based
[14] = biological target: T1, Interstitial collagenase (Homo sapiens, UniProt P03956); assay: Inhibition of MMP-1 (unknown origin) by colorimetric assay
T1 sequence (P03956 whole entry): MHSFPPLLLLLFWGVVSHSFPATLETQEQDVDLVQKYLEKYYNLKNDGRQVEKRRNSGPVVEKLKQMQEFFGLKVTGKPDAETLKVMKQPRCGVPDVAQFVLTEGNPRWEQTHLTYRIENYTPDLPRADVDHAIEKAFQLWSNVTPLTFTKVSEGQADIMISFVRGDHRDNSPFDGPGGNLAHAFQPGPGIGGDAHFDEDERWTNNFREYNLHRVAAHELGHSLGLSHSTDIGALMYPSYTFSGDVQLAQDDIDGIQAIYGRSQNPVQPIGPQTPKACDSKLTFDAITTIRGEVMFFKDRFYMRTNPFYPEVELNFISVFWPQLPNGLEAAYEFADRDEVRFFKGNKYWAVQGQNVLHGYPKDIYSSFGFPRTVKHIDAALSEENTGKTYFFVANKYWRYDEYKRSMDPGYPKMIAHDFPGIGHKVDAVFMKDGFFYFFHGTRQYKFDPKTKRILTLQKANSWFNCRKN

[15] = Induction of apoptosis in […] cells assessed as increase in caspase-3/7 activation by flow cytometric analysis; type: functional, Mus musculus
[16] = Induction of apoptosis in […] cells assessed as total apoptosis by annexinV/propidium iodide staining based by flow cytometry (reference value: 0.495+/- 0.01%); type: functional, Mus musculus
[17] = tested on: HepG2; assay: Induction of apoptosis in human HepG2 cells assessed as cell shrinkage by microscopic analysis; type: functional, cell-based
[18] = tested on: MCF7; assay: Induction of apoptosis in human MCF-7 cells assessed as late apoptosis by annexinV/propidium iodide staining based by flow cytometry (reference value: 0.01+/- 0.001%); type: functional
[19] = tested on: MCF7; assay: cells; conditions: Homo sapiens
Description: Anticancer activity against human MCF7 cells assessed as reduction in cell viability by MTT assay

[20] = tested on: WI-38; assay: Cytotoxicity against human WI-38 cells assessed as reduction in cell viability by MTT assay; type: cell-based; conditions: for IC50: Homo sapiens, WI-38; for EC100: human, wi-38
[21] = tested on: HepG2; assay: Induction of apoptosis in human HepG2 cells assessed as increase in caspase-3/7 activation by flow cytometric analysis; type: functional
[22] = biological target: 72 kDa type IV collagenase (Homo sapiens, UniProt P08253); assay: Inhibition of MMP-2 (unknown origin) by colorimetric assay
72 kDa type IV collagenase, sequence (P08253 whole entry): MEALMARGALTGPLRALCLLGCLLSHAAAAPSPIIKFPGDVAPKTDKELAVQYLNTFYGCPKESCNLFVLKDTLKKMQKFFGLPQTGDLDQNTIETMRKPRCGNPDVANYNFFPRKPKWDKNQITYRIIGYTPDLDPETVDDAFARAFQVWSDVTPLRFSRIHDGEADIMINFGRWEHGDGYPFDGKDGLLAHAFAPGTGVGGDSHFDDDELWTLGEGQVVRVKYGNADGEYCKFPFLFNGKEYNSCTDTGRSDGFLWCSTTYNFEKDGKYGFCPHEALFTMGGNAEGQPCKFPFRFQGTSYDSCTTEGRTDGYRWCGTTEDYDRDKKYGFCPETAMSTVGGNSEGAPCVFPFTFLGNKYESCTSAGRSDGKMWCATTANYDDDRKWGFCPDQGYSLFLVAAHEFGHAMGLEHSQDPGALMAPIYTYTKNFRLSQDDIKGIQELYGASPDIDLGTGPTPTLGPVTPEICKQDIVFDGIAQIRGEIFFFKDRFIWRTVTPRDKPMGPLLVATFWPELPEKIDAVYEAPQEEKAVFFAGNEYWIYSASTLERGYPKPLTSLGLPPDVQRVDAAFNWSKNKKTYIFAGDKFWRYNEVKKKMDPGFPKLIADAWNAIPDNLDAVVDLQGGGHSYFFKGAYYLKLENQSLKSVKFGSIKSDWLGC

[23] = tested on: NFS-60; assay: Induction of apoptosis in […] cells assessed as cell shrinkage by microscopic analysis; type: functional, cell-based
[24] = tested on: MCF7; assay: Induction of apoptosis in human MCF7 cells assessed as increase in caspase-3/7 activation by flow cytometric analysis; type: functional
[25] = tested on: HepG2; assay: Induction of apoptosis in human HepG2 cells assessed as total apoptosis by annexin/propidium iodide staining based by flow cytometry (reference value: 0.169+/- 0.02%); type: functional
[26] = tested on: HepG2; assay: Inhibition of cell migration in human HepG2 cells incubated for 24 hrs by wound healing assay; type: functional
[27] = in vitro; conditions: human, WI38 cells and HepG2 cells
Description: Selectivity index, ratio of IC50 for human WI38 cells to IC50 for human HepG2 cells

[28] = tested on: MCF7; assay: Induction of apoptosis in human MCF-7 cells assessed as total apoptosis by annexin V/propidium iodide staining based by flow cytometry (reference value: 0.48+/- 0.01%); type: functional

IC50 [7]	IC50 [9]	IC50 [13]	IC50 [14]	IC50 [19]	Compound	Activity [1]	Activity [2]	Activity [3]	IC50 [4]	Activity [5]	Activity [6]	Activity [8]	Activity [10]	Activity [11]	Activity [15]	Activity [16]	Activity [18]	IC50 [20]	EC100 [20]	Activity [21]	also measured
4.49 nM	280 nM	3.1 nM	104 nM	6.9 nM	O=C(Nc1ccc([N+](=O)[O-])cc1)C(c1ccccc1)N(C(=O)c1ccccc1I)c1ccccc1 (centres undefined)	9.99%	Active	Active	5.5 nM	58.08%	55.35%	31.78%	14.02%	Active	63.86%	68.07%	29.82%	35.1 nM	10.3 nM	70.708%	Activity [12]: Active; Activity [17]: Active; IC50 [22]: 266 nM; Activity [23]: Active; Activity [24]: 64.93%; Activity [25]: 69.375%; inhibition (INH) [26]: 59.35%; selectivity ratio [27]: 11.3; Activity [28]: 61.605%
7.46 nM	113 nM	2.2 nM	41 nM	3.6 nM	O=C(Nc1ccc([N+](=O)[O-])cc1)C(c1ccc([N+](=O)[O-])cc1)N(C(=O)c1ccc(C(F)(F)F)cc1)c1ccccc1 (centres undefined)	39.15%	Active	Active	3.61 nM	28.33%	43.95%	18.28%	26.46%	Active	62.703%	67.485%	50.72%	374 nM	107.4 nM	70.745%	Activity [12]: Active; Activity [17]: Active; IC50 [22]: 139 nM; Activity [23]: Active; Activity [24]: 65.725%; Activity [25]: 70.415%; inhibition (INH) [26]: 93.77%; selectivity ratio [27]: 170; Activity [28]: 69.005%
5.56 nM	295 nM	5.7 nM	47 nM	6.6 nM	O=C(Nc1ccc([N+](=O)[O-])cc1)C(c1ccccc1)N(Cc1ccccc1)C(=O)Cc1ccccc1 (centres undefined)	16.26%	Active	Active	5.8 nM	39.08%	36.1%	27.39%	19.08%	Active	53.86%	55.35%	21.79%	314 nM	93.5 nM	59.13%	IC50 [22]: 221 nM; Activity [24]: 51.928%; Activity [25]: 55.19%; inhibition (INH) [26]: 71.25%; selectivity ratio [27]: 55.1; Activity [28]: 49.19%
